Results from article PMC10401651, “Characterization of Uranyl (UO2^2+) Ion Binding to Amyloid Beta (Aβ) Peptides: Effects on Aβ Structure and Aggregation” (ACS Chemical Neuroscience, 2023).
“And” between values parts separate entries of the source, which are not always exact repeats. Identical values can stand only once. Like-named read-outs stand apart in the source and are kept apart here.

Key:
Aβ42 oligomers [1] = biological target: T1, Aβ42 oligomers (Homo sapiens, UniProt P05067); experiment: FTIR spectroscopy of SDS-stabilized Aβ42 oligomer structure
T1 construct: Synthetic lyophilized wt Aβ (1–42) peptides, abbreviated as Aβ42; purchased JPT Peptide Technologies (Germany); host or cells: synthetic peptide
T1 sequence (P05067 672-713 limits assumed): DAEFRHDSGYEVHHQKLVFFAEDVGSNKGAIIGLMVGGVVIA
Procedure: The secondary structures of Aβ42 oligomers formed with different SDS and uranyl concentrations were studied with FTIR spectroscopy, where the amide I region (1700–1600 cm^–1) is very sensitive to changes in the protein backbone conformation, including differences in β-sheet structures.[133]−[135] […] This split pattern of IR bands in the amide I region is typical for anti-parallel β-sheet structures.[136]−[138]
Treatment of Aβ42 peptides with low concentrations (≤7 mM) of SDS, i.e., below the critical micelle concentration for SDS, which is 8.2 mM in water at 25 °C,[152] leads to the formation of stable and homogeneous Aβ42 oligomers of certain sizes and conformations.[131],[132],[153] […] The absorbance for each fraction at 280 nm was measured with a NanoDrop instrument (Eppendorf, Germany), and peptide concentrations were determined using a molar extinction coefficient of 1280 M^–1 cm^–1 for the single Tyr in Aβ42.[155] […]
FTIR spectra of the SDS-stabilized Aβ42 oligomers (prepared as described in Section 5.2) were recorded in transmission mode on a Tensor 37 FTIR spectrometer (Bruker Optics, Germany) equipped with a sample shutter and a liquid nitrogen-cooled MCT detector. […] FTIR spectra were recorded at room temperature in the 1900–800 cm^–1 range, with 300 scans for both background and sample spectra, using a 6 mm aperture and at a resolution of 2 cm^–1. […]

Aβ42 oligomers [2] = biological target: T1, Aβ42 oligomers; experiment: BN-PAGE analysis of SDS-stabilized Aβ42 oligomer formation; type: biochemical
Procedure: Treatment of Aβ42 peptides with low concentrations (≤7 mM) of SDS, i.e., below the critical micelle concentration for SDS, which is 8.2 mM in water at 25 °C,[152] leads to the formation of stable and homogeneous Aβ42 oligomers of certain sizes and conformations.[131],[132],[153] To prepare such oligomers, size exclusion chromatography (SEC) was initially used to purify synthetic Aβ42 peptides into monomeric form. First, 1 mg of lyophilized Aβ42 powder was dissolved in […] of DMSO. Next, a […] HiTrap desalting column (GE Healthcare, Uppsala) was equilibrated with a 5 mM NaOH solution (pH = 12.3) and washed with a solution of 10–15 mL of 5 mM NaOD, pD = 12.7.[154] The peptide solution in DMSO was applied to the column, followed by an injection of 1.25 mL of 5 mM NaOD. The collection of peptide fractions in 5 mM NaOD on ice was started at a […] flow rate. Ten fractions of 1 mL volumes were collected in 1.5 mL Eppendorf tubes. The absorbance for each fraction at 280 nm was measured with a NanoDrop instrument (Eppendorf, Germany), and peptide concentrations were determined using a molar extinction coefficient of 1280 M^–1 cm^–1 for the single Tyr in Aβ42.[155] The peptide fractions were flash-frozen in liquid nitrogen, covered with argon gas on top in 1.5 mL Eppendorf tubes, and stored at −80 °C until used. SDS-stabilized Aβ42 oligomers of two well-defined sizes (approximately tetramers and dodecamers) were prepared according to a previously published protocol,[131] but in D2O, at a 4-fold lower peptide concentration and without the original dilution step.[132]
Thus, 4–16% Bis–Tris Novex gels (Thermo Fisher Scientific, USA) were loaded with 10 μL samples containing Aβ42 oligomer solutions alongside alongside the Amersham high MW calibration kit for native electrophoresis (GE Healthcare, USA). The gels were run at 4 °C using the electrophoresis system according to the Invitrogen instructions (Thermo Fisher Scientific, USA) and then stained with the Pierce Silver Staining Kit according to the manufacturer’s instructions (Thermo Fisher Scientific, USA). […]

Aβ40 peptide = biological target: T2, Aβ40 peptide (Homo sapiens, UniProt P05067); experiment: Binding affinity via Tyr10 fluorescence quenching, Aβ40; details: for Kd: 20 μM Aβ40
T2 construct: namely, the Aβ40 peptide and the Aβ40 (H6A, H13A, and H14A) triple-mutant; purchased AlexoTech AB (Umeå, Sweden); host or cells: recombinant
T2 sequence (P05067 672-711 limits assumed): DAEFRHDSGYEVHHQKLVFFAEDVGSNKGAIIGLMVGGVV
Procedure: Fluorescence measurements were conducted on a Jobin Yvon Horiba Fluorolog 3 fluorescence spectrophotometer (Longjumeau, France) using a quartz cuvette with a 4 mm path length. […] Apparent dissociation constants (KD^App) were determined by fitting the plots to eq 2 [drawing 2] 2 where I0 is the initial fluorescence intensity with no added UO2^2+ ions, I∞ is the steady-state intensity at the end of the titration, [Ab] is the protein concentration, and [U] is the concentration of added UO2^2+ ions.[121],[160]

[3] = biological target: T3, Aβ40 (H6A, H13A, and H14A) triple-mutant, Aβ40 (NoHis) (Homo sapiens, UniProt P05067, H677A/H684A/H685A); experiment: Binding affinity via Tyr10 fluorescence quenching, Aβ40 (NoHis) mutant; details: 20 μM Aβ40 (NoHis)
T3 construct: the Aβ40 (H6A, H13A, and H14A) triple-mutant; purchased AlexoTech AB (Umeå, Sweden); host or cells: recombinant
T3 sequence (P05067 672-711 H677A/H684A/H685A): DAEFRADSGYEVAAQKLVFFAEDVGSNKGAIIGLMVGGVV

[4] = pH 5.1 + 50 mM SDS, read-out: KD^App, single replicates
[5] = pH 5.1 + 50 mM SDS, three replicates, read-out: KD^App, average
[6] = pH 5.1, 20 mM MES, read-out: KD^App, single replicates
[7] = pH 5.1, 20 mM MES, three replicates, read-out: KD^App, average

CC(=O)[O-].CC(=O)[O-].[O]=[U+2]=[O] [uranyl ions, uranyl acetate] was tested, and the “β-sheet main band position (amide I, FTIR)” value (Aβ42 oligomers [1]; AβO0.05%SDS oligomers in PBS, 1 mM uranyl acetate (1628.3 without)) was 1627.8 cm^–1, the “β-sheet main band position (amide I, FTIR)” value (Aβ42 oligomers [1]; AβO0.2%SDS oligomers, 0.01, 0.1, and 1 mM uranyl acetate (1629.9 without)) was 1629.8 cm^–1 and the “formation of AβO0.05%SDS oligomers (BN-PAGE)” value (Aβ42 oligomers [2]; 0.05% SDS, 10, 100, 1000 μM uranyl acetate, 80–100 μM Aβ42) was “no well-defined uniform oligomers were observed”. The “concentration required for full disruption of homogeneous AβO0.05%SDS oligomers” value (Aβ42 oligomers [2]; 0.05% SDS, Aβ42 oligomers) was 10 µM, the “formation of AβO0.2%SDS oligomers (BN-PAGE)” value (Aβ42 oligomers [2]; 0.2% SDS, 10, 100, 1000 μM uranyl, 80–100 μM Aβ42) was “gradually lower amounts of stable AβO0.2%SDS oligomers” and the “affinities for binding to Aβ peptides” value (Aβ40 peptide; general statement of the abstract) was “micromolar range”. For the same compound, the Kd (Aβ40 peptide; [4]) was 21.8 µM and 21.7 µM and 27.4 µM, the Kd (Aβ40 peptide; [5]) was 23.6 ± 3 µM and the Kd (Aβ40 peptide; [6]) was 14 µM and 13.7 µM and 21.3 µM. The Kd (Aβ40 peptide; [7]) was 16.3 ± 4 µM, the Kd (Aβ40 peptide; pH 7.3 + 50 mM SDS, not to be trusted, read-out: KD^App, single replicates) was 206 µM and 252 µM and 251 µM and the Kd (Aβ40 peptide; pH 7.3 + 50 mM SDS, three replicates, not to be trusted, read-out: KD^App, average) was 236 ± 22 µM. For the same compound, the Kd (Aβ40 peptide; pH 7.3, 20 mM MES, data deviate from single-site model, not to be trusted, read-out: KD^App, single replicates) was 130 µM and 141 µM and 148 µM, the Kd (Aβ40 peptide; pH 7.3, 20 mM MES, three replicates, not to be trusted, read-out: KD^App, average) was 140 ± 8 µM and the Kd [3, 4] was 22.3 µM and 30.7 µM and 27.9 µM. For the same compound, the Kd [3, 5] was 27 ± 4 µM, the Kd [3, 6] was 2.3 µM and 2.8 µM and 4 µM and the Kd [3, 7] was 3 ± 1 µM.
